Experimental data: ChEMBL document CHEMBL1201862, “PubChem BioAssay data set” (2004)
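Values below derive from 48-hour exposures of cells grown in 96-well plates, with endpoints linearly interpolated between the two concentrations bracketing the appropriate inhibition level. GI50 marks 50% less growth.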 Active and inactive are the calls of the source. No stated cut-off is given here; in the data, active = GI50 up to about 1.1 µM and inactive = higher.

How the values were obtained:
Assay in all cases: NCI anticancer screen, dose series, 48 h
HCC 2998 = test system: HCC 2998
UACC-257 = test system: UACC-257
NCI-H23 = test system: NCI-H23
Malme-3M = test system: Malme-3M
SK-MEL-5 = test system: SK-MEL-5
LOX IMVI = test system: LOX IMVI
HOP-92 = test system: HOP-92
UO-31 = test system: UO-31
HT-29 = test system: HT-29
SR = test system: SR
NCI-H226 = test system: NCI-H226
MDA-N = test system: MDA-N
SF-268 = test system: SF-268
NCI-H522 = test system: NCI-H522
M14 = test system: M14
Hs-578T = test system: Hs-578T
HCT-116 = test system: HCT-116
MDA-MB-231 = test system: MDA-MB-231
DU-145 = test system: DU-145
HCT-15 = test system: HCT-15
SW-620 = test system: SW-620
CAKI-1 = test system: CAKI-1
HL-60 = test system: HL-60
OVCAR-3 = test system: OVCAR-3
OVCAR-8 = test system: OVCAR-8
ACHN = test system: ACHN
HOP-62 = test system: HOP-62
SF-295 = test system: SF-295
TK-10 = test system: TK-10
U-251 = test system: U-251
MDA-MB-435 = test system: MDA-MB-435
NCI-H460 = test system: NCI-H460
OVCAR-4 = test system: OVCAR-4
NCI/ADR-RES = test system: NCI/ADR-RES
SN12C = test system: SN12C
786-0 = test system: 786-0
MCF7 = test system: MCF7
MOLT-4 = test system: MOLT-4
OVCAR-5 = test system: OVCAR-5
SF-539 = test system: SF-539
UACC-62 = test system: UACC-62
SK-MEL-28 = test system: SK-MEL-28
SNB-75 = test system: SNB-75
EKVX = test system: EKVX
A549 = test system: A549
K562 = test system: K562
SK-OV-3 = test system: SK-OV-3
A498 = test system: A498
KM12 = test system: KM12
IGROV-1 = test system: IGROV-1
T47D = test system: T47D
RXF 393 = test system: RXF 393
CCRF-CEM = test system: CCRF-CEM
PC-3 = test system: PC-3
SNB-19 = test system: SNB-19
SK-MEL-2 = test system: SK-MEL-2
COLO 205 = test system: COLO 205
BT-549 = test system: BT-549
RPMI-8226 = test system: RPMI-8226

CN1CC2=C(N=C(S)NC2c2ccccc2Cl)/C(=C/c2ccccc2Cl)C1 (configuration not stated)
GI50 (HCC 2998): > 100 µM (inactive)
GI50 (UACC-257): 55.8 µM (inactive)
GI50 (NCI-H23): 43.2 µM (inactive)
GI50 (Malme-3M): 25.9 µM (inactive)
GI50 (SK-MEL-5): 12.2 µM (inactive)
GI50 (LOX IMVI): 51.1 µM (inactive)
GI50 (HOP-92): 3.81 µM (inactive)
GI50 (UO-31): 25.6 µM (inactive)
GI50 (HT-29): 30.8 µM (inactive)
GI50 (SR): 17.7 µM (inactive)
GI50 (NCI-H226): 52.7 µM (inactive)
GI50 (MDA-N): 60.3 µM (inactive)
GI50 (SF-268): 95.9 µM (inactive)
GI50 (NCI-H522): 29.6 µM (inactive)
GI50 (M14): 38.9 µM (inactive)
GI50 (Hs-578T): > 100 µM (inactive)
GI50 (HCT-116): 30.9 µM (inactive)
GI50 (MDA-MB-231): 26.2 µM (inactive)
GI50 (DU-145): 76.2 µM (inactive)
GI50 (HCT-15): 64.1 µM
GI50 (SW-620): > 100 µM (inactive)
GI50 (CAKI-1): > 100 µM (inactive)
GI50 (HL-60): 21.8 µM (inactive)
GI50 (OVCAR-3): 21.5 µM (inactive)
GI50 (OVCAR-8): 33 µM (inactive)
GI50 (ACHN): 25.1 µM (inactive)
GI50 (HOP-62): > 100 µM (inactive)
GI50 (SF-295): 53.5 µM (inactive)
GI50 (TK-10): 71.3 µM (inactive)
GI50 (U-251): 80.5 µM (inactive)
GI50 (MDA-MB-435): 28.8 µM (inactive)
GI50 (NCI-H460): > 100 µM (inactive)
GI50 (OVCAR-4): 14.3 µM (inactive)
GI50 (NCI/ADR-RES): 30.5 µM (inactive)
GI50 (SN12C): 46.2 µM (inactive)
GI50 (786-0): > 100 µM (inactive)
GI50 (MCF7): > 100 µM (inactive)
GI50 (MOLT-4): 23 µM (inactive)
GI50 (OVCAR-5): > 100 µM (inactive)
GI50 (SF-539): 73.6 µM (inactive)
GI50 (UACC-62): 14.7 µM (inactive)
GI50 (SK-MEL-28): > 100 µM (inactive)
GI50 (SNB-75): 3.33 µM (inactive)
GI50 (EKVX): 43.2 µM (inactive)
GI50 (A549): 30.5 µM (inactive)
GI50 (K562): 29 µM (inactive)
GI50 (SK-OV-3): > 100 µM (inactive)
GI50 (A498): 77.3 µM (inactive)
GI50 (KM12): 56.1 µM (inactive)
GI50 (IGROV-1): 53.7 µM (inactive)
GI50 (T47D): 58.3 µM (inactive)
GI50 (RXF 393): > 100 µM (inactive)
GI50 (CCRF-CEM): 28.8 µM (inactive)
GI50 (PC-3): 26.5 µM (inactive)
GI50 (SNB-19): > 100 µM (inactive)
GI50 (SK-MEL-2): 69 µM (inactive)
GI50 (COLO 205): 21.8 µM (inactive)

CCOP(=O)(OCC)[C@H](O)c1ccsc1
GI50 (HCC 2998): > 100 µM (inactive)
GI50 (UACC-257): > 100 µM (inactive)
GI50 (NCI-H23): > 100 µM (inactive)
GI50 (Malme-3M): > 100 µM (inactive)
GI50 (SK-MEL-5): > 100 µM (inactive)
GI50 (LOX IMVI): > 100 µM (inactive)
GI50 (UO-31): > 100 µM (inactive)
GI50 (HT-29): > 100 µM (inactive)
GI50 (SR): > 100 µM (inactive)
GI50 (NCI-H226): > 100 µM (inactive)
GI50 (MDA-N): > 100 µM (inactive)
GI50 (SF-268): > 100 µM (inactive)
GI50 (NCI-H522): > 100 µM (inactive)
GI50 (M14): > 100 µM (inactive)
GI50 (HCT-116): > 100 µM (inactive)
GI50 (MDA-MB-231): > 100 µM (inactive)
GI50 (DU-145): > 100 µM (inactive)
GI50 (HCT-15): > 100 µM
GI50 (SW-620): > 100 µM (inactive)
GI50 (CAKI-1): > 100 µM (inactive)
GI50 (BT-549): > 100 µM (inactive)
GI50 (OVCAR-8): > 100 µM (inactive)
GI50 (ACHN): > 100 µM (inactive)
GI50 (HOP-62): > 100 µM (inactive)
GI50 (SF-295): > 100 µM (inactive)
GI50 (TK-10): > 100 µM (inactive)
GI50 (U-251): > 100 µM (inactive)
GI50 (MDA-MB-435): > 100 µM (inactive)
GI50 (RPMI-8226): > 100 µM (inactive)
GI50 (NCI-H460): > 100 µM (inactive)
GI50 (OVCAR-4): > 100 µM (inactive)
GI50 (NCI/ADR-RES): > 100 µM (inactive)
GI50 (SN12C): > 100 µM (inactive)
GI50 (786-0): > 100 µM (inactive)
GI50 (MCF7): > 100 µM (inactive)
GI50 (MOLT-4): > 100 µM (inactive)
GI50 (OVCAR-5): > 100 µM (inactive)
GI50 (SF-539): > 100 µM (inactive)
GI50 (UACC-62): > 100 µM (inactive)
GI50 (SK-MEL-28): > 100 µM (inactive)
GI50 (SNB-75): > 100 µM (inactive)
GI50 (EKVX): > 100 µM (inactive)
GI50 (A549): > 100 µM (inactive)
GI50 (K562): > 100 µM (inactive)
GI50 (SK-OV-3): > 100 µM (inactive)
GI50 (A498): > 100 µM (inactive)
GI50 (KM12): > 100 µM (inactive)
GI50 (IGROV-1): > 100 µM (inactive)
GI50 (T47D): > 100 µM (inactive)
GI50 (RXF 393): > 100 µM (inactive)
GI50 (CCRF-CEM): > 100 µM (inactive)
GI50 (PC-3): > 100 µM (inactive)
GI50 (SNB-19): > 100 µM (inactive)
GI50 (SK-MEL-2): > 100 µM (inactive)
GI50 (COLO 205): > 100 µM (inactive)
